In ChEMBL document CHEMBL3045479, “Synthesis and anti-cancer activity of some novel C-17 analogs of ursolic and oleanolic acids” (2013):

Key:
Type in all cases: functional
[1] = tested on: IMR-32; experiment: Growth inhibition of Homo sapiens (human) IMR32 cells at 10 uM after 48 hr by SRB assay; conditions: IMR-32, 48 h, read-out: GI
[2] = tested on: A549; experiment: Growth inhibition of Homo sapiens (human) A549 cells at 10 uM after 48 hr by SRB assay; conditions: A549, 48 h, read-out: GI
[3] = tested on: THP-1; experiment: Growth inhibition of Homo sapiens (human) THP1 cells at 10 uM after 48 hr by SRB assay; conditions: THP-1, 48 h, read-out: GI
[4] = tested on: SiHa; experiment: Growth inhibition of Homo sapiens (human) SiHa cells at 10 uM after 48 hr by SRB assay; conditions: read-out: GI
[5] = tested on: COLO 205; experiment: Growth inhibition of Homo sapiens (human) COLO205 cells at 10 uM after 48 hr by SRB assay; conditions: COLO 205, 48 h, read-out: GI
[6] = tested on: SW-620; experiment: Growth inhibition of Homo sapiens (human) SW620 cells at 10 uM after 48 hr by SRB assay; conditions: SW-620, 48 h, read-out: GI
[7] = tested on: PC-3; experiment: Growth inhibition of Homo sapiens (human) PC3 cells at 10 uM after 48 hr by SRB assay; conditions: PC-3, 48 h, read-out: GI
[8] = tested on: HeLa; experiment: Growth inhibition of Homo sapiens (human) HeLa cells at 10 uM after 48 hr by SRB assay; conditions: read-out: GI

`C[C@H]1[C@H](C)CC[C@]2(C(=O)O)CC[C@]3(C)C(=CC[C@@H]4[C@@]5(C)CC[C@H](O)C(C)(C)[C@@H]5CC[C@]43C)[C@H]12` [URSOLIC ACID] showed an inhibition of growth at 10 µM [1] of 13%, an inhibition of growth at 10 µM [2] of 8% and an inhibition of growth at 10 µM [3] of 52%. It also gave an inhibition of growth at 10 µM [4] of 67%, an inhibition of growth at 10 µM [5] of 7% and an inhibition of growth at 10 µM [6] of 71%. The inhibition of growth at 10 µM [7] was 60% and the inhibition of growth at 10 µM [8] was 65%.
